The record followed here is US7414068B2, “Benzopyran derivatives substituted with secondary amines including tetrazole, method for the preparation thereof and pharmaceutical compositions containing them” (Dongbu Hannong Chemical Co., Ltd., priority 2002, dated 2008).

The test system of series [1] is isolated rat aorta. Description: Vasodilating effect on blood vessel excised from rats (methoxamine-constricted aorta). The note with it: isolated rat aorta constricted with methoxamine (3 μM); read-out: Concentration for inhibition of constriction induced by methoxamine in rat arota (IC50). The source says:
Rats (350˜450 g, obtained from the Experimental Animal Team of the Korea Research Institute of Chemical Technology) were knocked to be unconscious by hitting the occipital region, sacrificed by cervical dislocation, and underwent thoracotomy. After being quickly removed, the thoracic aorta was deprived of the adipose tissue and cut into aortic rings of 3 mm width. The aorta was lightly rubbed with cotton club soaked in a modified Krebs Henseleit buffer (Physiological salt solution) to remove the inner epithelial layer therefrom. While being hung in an organ bath containing a physiological buffer, the vascular smooth muscle was allowed to equilibrate under a resting tension of 2 g and then, stand for 1 hour at 37° C. for stabilization, supplying a carbogen consisting of 95% O2˜5% CO2.
Thereafter, the vascular smooth muscle was constricted with 10^−5M phenylephrine and washed several times with physiological saline solution. The said procedure was repeated again to ensure the stable reactivity of vascular smooth muscle to repetitive constriction/relaxation.
Thereafter, 3×10^−6 M methoxamine was applied to induce an intensive constriction in the vascular smooth muscle. When the vasoconstriction induced by the methoxamine was reached and maintained to a maximum, test compounds and control material was cumulatively added to the organ bath in concentration of 1, 3, 10 and 30 μM, respectively, to examine the vasodilating effect. Cromakalim, BMS-180448 (the compound of formula 4) and BMS-191095 (the compound of formula 5), known to be the first generation KATP opener with potent vasodilating effect were used as control materials.
The change rate of constriction by the addition of the drugs compared to the maximal constriction induced by methoxamine was calculated to plot a concentration-relaxation response curve. Through a least linear regression analysis, IC50 that the drug concentration at which the vascular tissue is relaxed to 50% extent of the maximal constriction, was obtained for each drug.

The subject of series [2] is cortical neuron cells. The experiment in a line: Protective effect on iron-induced neuronal cell injury (LDH release). Format: cell-based. The note with it: FeSO4 50 μM; for protective effect on neuron cell: Inhibition (%, 30 μM compound addition): LDH reduction vs control; for IC50: LDH. The protocol: From the brains of 17˜18 day-old embryos, cortical neuron cells were isolated and then, cultured at 37° C. for 7˜9 days in a 5% CO2 incubator. The said cortical cell cultures were washed twice with MEM (Minimum essential medium) to reduce the serum level to 0.2%. […] Then, the compound of the said concentration was pre-treated for 30 min, respectively. For the experiment, test compound was dissolved in DMSO and diluted in a medium. At this time, the final concentration of DMSO was not allowed to exceed 0.1%. For control group, only vehicle was applied.
After the said pre-treatment, FeSO4 was added to the medium for a final concentration to be 50 μM. The medium was cultured in CO2 incubator for 24 hours. During the incubation, lactate dehydrogenase (LDH) was released by iron. The serum level of lactate dehydrogenase released into the medium was measured to assess necrosis of neuronal cell by the oxidative toxicity of iron. The protective effect on neuron cells of the test compounds was evaluated by calculating the LDH reduction rate of treatment-group compared with that of the control group.

Series [3] can be described thus: Acute oral toxicity test in rats. The note with it: SD, rat, in vivo, single oral dose, suspended in 0.5% methyl cellulose, read-out: lethal dose (LD50) for oral administration. How it is done:
In this test, six-week old SPF SD rats were used with two rats assigned to each group. Each group was consisted of two rats. The compounds prepared in example 1, 7, 11, 17, 22, 24, 26, 28, 30, 32, 34, 42, 52, 54, 55, 56, 57, 59, 60, 61, 70, 75, 77, 79, 81, 83, 85, and 89 were suspended in 0.5% methyl cellulose, respectively. […] Also, hematological test and biochemical analysis were accomplished. After sacrificing the animals, autopsy was performed for macroscopic observations of the organs and tissues. As a result, there was no significant changes in clinical symptoms, body weight and mortalities. Also in hematology, serum chemistry parameters, macroscopic observation and drug-related changes were not observed.

Bounds are passed on as bounds.

On to `CC1(C)Oc2ccc(C#N)cc2[C@H](N(Cc2ncc[nH]2)c2ccc(Cl)cc2)[C@H]1O` [BMS-191095, reference compound], for which the IC50 in series [1] was 2.14 µM.
`CC1(C)Oc2ccc(C#N)cc2C(N2CCCC2=O)C1O` (stereo not shown) [Cromakalim, reference compound]: the IC50 in series [1] is 0.067 µM.
`COC(OC)[C@@]1(C)Oc2ccc(N)cc2[C@@H](N(Cc2nnn(C)n2)c2ccc(Cl)cc2)[C@@H]1O` [Example 10, (2S,3S,4R)-6-amino-4-[N-(4-chlorophenyl)-N-(2-methyl-2H-tetrazol-5-ylmethyl)amino]-3-hydroxy-2-methyl-2-dimethoxymethyl-3,4-dihydro-2H-1-benzopyran]: the “protective effect on neuron cell: Inhibition (%, 30 μM compound addition)” value in series [2] (24 hours) was 103%. In addition, the IC50 in series [2] (Cortical neurone, 24 h) is 2.2 µM; in series [1], over 30 µM.
`COC(OC)[C@@]1(C)Oc2ccc(N)cc2[C@@H](N(Cc2nnn(C)n2)c2ccc(C)cc2)[C@@H]1O` [Example 24]: in series [2] (24 hours), the “protective effect on neuron cell: Inhibition (%, 30 μM compound addition)” value was found to be 98% and the IC50 was 6.1 µM. The IC50 in series [1] is over 30 µM.
Turning to `COC(OC)[C@@]1(C)Oc2ccc([N+](=O)[O-])cc2[C@H](N(Cc2nnn(C)n2)c2ccc(C(F)(F)F)cc2)[C@H]1O` [Example 33, (2S,3R,4S)-6-nitro-4-[N-(4-trifluoromethylphenyl)-N-(2-methyl-2H-tetrazol-5-ylmethyl)amino]-3-hydroxy-2-methyl-2-dimethoxymethyl-3,4-dihydro-2H-1-benzopyran], the “protective effect on neuron cell: Inhibition (%, 30 μM compound addition)” value in series [2] (24 hours) was found to be 91%. For the same compound, in series [2] (Cortical neurone, 24 h), the IC50 turned out to be 6 µM.
Turning to `COC(OC)[C@@]1(C)Oc2ccc(N)cc2[C@H](N(Cc2nnn(C)n2)c2ccccc2)[C@H]1O` [Example 55, (2S,3R,4S)-6-amino-4-[N-(2-methyl-2H-tetrazol-5-ylmethyl)phenylamino]-3-hydroxy-2-methyl-2-dimethoxymethyl-3,4-dihydro-2H-1-benzopyran], in series [3], the LD50 was over 2000 mg/kg.
For `COC(OC)[C@@]1(C)Oc2ccc(N)cc2[C@H](N(Cc2ccccc2)Cc2nnn(C)n2)[C@H]1O` [Example 57, (2S,3R,4S)-6-amino-4[N-benzyl-N-(2-methyl-2H-tetrazol-5-ylmethyl)amino]-3-hydroxy-2-methyl-2-dimethoxymethyl-3,4-dihydro-2H-1-benzopyran], the LD50 in series [3] is over 2000 mg/kg. Moreover, in series [2] (24 hours), the “protective effect on neuron cell: Inhibition (%, 30 μM compound addition)” value is 94%. This compound registered an IC50 in series [2] (Cortical neurone, 24 h) of 3.1 µM.
In the case of `COC(OC)[C@@]1(C)Oc2ccc(N)cc2[C@H](N(Cc2nnn(C)n2)c2ccc(O)cc2C)[C@H]1O` [Example 65, (2S, 3R,4S)-6-amino-4-[N-(2methyl-4-hydroxyphenyl)-N-(2-methyl-2H-tetrazol-5-ylmethyl)amino]-3-hydroxy-2-methyl-2-dimethoxymethyl-3,4-dihydro-2H-1-benzopyran], the IC50 in series [1] is over 30 µM.
Regarding `COC(OC)[C@@]1(C)Oc2ccc(N)cc2[C@H](N(Cc2nnn(C)n2)c2cc(C)ccc2O)[C@H]1O` [Example 71, (2S,3R,4S)-6-amino-4-[N-(2-hydroxy-5-methylphenyl)-N-(2-methyl-2H-tetrazol-5-ylmethyl)amino]-3-hydroxy-2-methyl-2-dimethoxymethyl-3,4-dihydro-2H-1-benzopyran], in series [2] (24 hours), the “protective effect on neuron cell: Inhibition (%, 30 μM compound addition)” value is given as 89% and the IC50 amounted to 0.9 µM. The IC50 in series [2] (Cortical neurone, 24 h) is under 1 µM.
Take `COC(OC)[C@@]1(C)Oc2ccc([N+](=O)[O-])cc2[C@@H](N(Cc2nnn(C)n2)c2ccc(C(F)(F)F)cc2)[C@@H]1O` [Example 74, (2S,3S,4R)-6-nitro-4-[N-(4-trifluoromethylphenyl)-N-(2-methyl-2H-tetrazol-5-ylmethyl)amino]-3-hydroxy-2-methyl-2-dimethoxymethyl-3,4-dihydro-2H-1-benzopyran]: the “protective effect on neuron cell: Inhibition (%, 30 μM compound addition)” value in series [2] (24 hours) is recorded as 90%. The same compound had an IC50 in series [2] (Cortical neurone, 24 h) of 5.3 µM.
Taken in the same sequence, the figures for `COC(OC)[C@]1(C)Oc2ccc([N+](=O)[O-])cc2[C@@H](N(Cc2nnn(C)n2)c2ccc(C(F)(F)F)cc2)[C@@H]1O` [Example 76, (2R,3S,4R)-6-nitro-4-[N-(4-trifluoromethylphenyl)-N-(2-methyl-2H-tetrazol-5-ylmethyl)amino]-3-hydroxy-2-methyl-2-dimethoxymethyl-3,4-dihydro-2H-1-benzopyran] were 52% and 5.7 µM.
For `COC(OC)[C@]1(C)Oc2ccc([N+](=O)[O-])cc2[C@H](N(Cc2nnn(C)n2)c2ccc(C(F)(F)F)cc2)[C@H]1O` [Example 78, (2R,3R,4S)-6-nitro-4-[N-(4-trifluoromethylphenyl)-N-(2-methyl-2H-tetrazol-5-ylmethyl)amino]-3-hydroxy-2-methyl-2-dimethoxymethyl-3,4-dihydro-2H-1-benzopyran] the same measures were 69% and 4.4 µM.
`COC(OC)[C@]1(C)Oc2ccc(N)cc2[C@H](N(Cc2nnn(C)n2)c2ccc(C(F)(F)F)cc2)[C@H]1O` [Example 79, (2R,3R,4S)-6-amino-4-[N-(4-trifluoromethylphenyl)-N-(2-methyl-2H-tetrazol-5-ylmethyl)amino]-3-hydroxy-2-methyl-2-dimethoxymethyl-3,4-dihydro-2H-1-benzopyran]: the LD50 in series [3] was over 2000 mg/kg. Further, the “protective effect on neuron cell: Inhibition (%, 30 μM compound addition)” value in series [2] (24 hours) is given as 107%. Besides, the IC50 in series [2] (Cortical neurone, 24 h) is under 2 µM; in series [2] (24 hours), 1.7 µM.
`COC(OC)[C@@]1(C)Oc2ccc([N+](=O)[O-])cc2[C@@H](N(Cc2nnn(C)n2)c2ccc(OC(F)(F)F)cc2)[C@@H]1O` [Example 80, (2S,3S,4R)-6-nitro-4-[N-(4-trifluoromethoxyphenyl)-N-(2-methyl-2H-tetrazol-5-ylmethyl)amino]-3-hydroxy-2-methyl-2-dimethoxymethyl-3,4-dihydro-2H-1-benzopyran]: the “protective effect on neuron cell: Inhibition (%, 30 μM compound addition)” value in series [2] (24 hours) is reported as 95%. The same compound registered an IC50 in series [2] (Cortical neurone, 24 h) of 5 µM.
Regarding `COC(OC)[C@]1(C)Oc2ccc([N+](=O)[O-])cc2[C@H](N(Cc2nnn(C)n2)c2ccc(OC(F)(F)F)cc2)[C@H]1O` [Example 82, (2R,3R,4S)-6-nitro-4-[N-(4-trifluoromethoxyphenyl)-N-(2-methyl-2H-tetrazol-5-ylmethyl)amino]-3-hydroxy-2-methyl-2-dimethoxymethyl-3,4-dihydro-2H-1-benzopyran], in series [2] (24 hours), the “protective effect on neuron cell: Inhibition (%, 30 μM compound addition)” value was 69% and the IC50 was found to be 1.3 µM. In series [2] (Cortical neurone, 24 h), this compound yielded an IC50 of under 2 µM.
`COC(OC)[C@]1(C)Oc2ccc([N+](=O)[O-])cc2[C@@H](N(Cc2nnn(C)n2)c2ccc(OC(F)(F)F)cc2)[C@@H]1O` [Example 84, (2R,3S,4R)-6-nitro-4-[N-(4-trifluoromethoxyphenyl)-N-(2-methyl-2H-tetrazol-5-ylmethyl)amino]-3-hydroxy-2-methyl-2-dimethoxymethyl-3,4-dihydro-2H-1-benzopyran]: the “protective effect on neuron cell: Inhibition (%, 30 μM compound addition)” value in series [2] (24 hours) is listed as 48%. The same compound returned an IC50 in series [2] (Cortical neurone, 24 h) of 5.6 µM.
As for `COC[C@]1(C)Oc2ccc([N+](=O)[O-])cc2[C@@H](N(Cc2nnn(C)n2)c2ccc(F)cc2)[C@@H]1O` [Example 99, (2S,3S,4R)-6-nitro-4-[N-(4-fluorophenyl)-N-(2-methyl-2H-tetrazol-5-ylmethyl)amino]-3-hydroxy-2-methyl-2-methoxymethyl-3,4-dihydro-2H-1-benzopyran], in series [2] (24 hours), the “protective effect on neuron cell: Inhibition (%, 30 μM compound addition)” value was 69%. Further, the IC50 in series [2] (Cortical neurone, 24 h) was determined as 20.8 µM.
